Experimental data taken from patent US12134769B2, “MicroRNA-198 as a tumor suppressor in ovarian cancer” (Baylor College of Medicine, priority 2011, dated 2024).
“And” between values parts separate entries of the source, which are not always exact repeats. Equal values may be shown once.

Legend:
[1] = system: AsPC1 cells; test: Invasion assay across Matrigel; assay type: cell-based, human; conditions: AsPC1 cells following miR-198 overexpression
Method: (§1) Cell migration was determined with a modified Boyden chamber assay as described previously (Li et al., 2008). For invasion assays, Matrigel basement membrane matrix (BD Biosciences) was used by adding 100 ul of 1 mg/ml Matrigel to the migration chamber inserts prior to plating of the cells (Li et al., 2008, Bharadwaj).
(§2) An invasion assay was performed as described for the migration assay. For invasion, Matrigel basement membrane matrix (BD Biosciences) was used by adding 100 μl of 1 mg/ml Matrigel to the migration chamber inserts prior to plating of the cells.

[2] = system: MIA-MSLN cells; test: Invasion assay across Matrigel; assay type: cell-based, human; conditions: 36 h after miR-198 precursor transfection
Method: as §1, §2

[3] = system: MIA-MSLN cells; test: Apoptosis assay (TUNEL, caspase 3 western) after TNF-α; assay type: cell-based, human
Method: (§3) Apoptosis induction was determined using western blotting for Caspase 3 cleavage and confirmed by labeling DNA breaks using a terminal deoxynucleotidyltransferase dUTP nick end labeling (TUNEL) assay with the APO-DIRECT Kit (BD Biosciences) following 96 h of treatment (24 h serum starvation followed by 72 h of treatment with 20 ng/ml of TNF-α). Briefly, cells were plated in either 10% FBS media or serum-starved for 96 h, at which time 1×10^6 cells were harvested using trypsin-EDTA. After centrifugation, the pellets were washed twice with PBS, then resuspended in 1% paraformaldehyde in PBS and incubated on ice for 45 minutes. After several washes, the cell pellet again was resuspended in PBS/ethanol, incubated on ice for 30 minutes, and stored at −20° C. Cell samples were then pelleted, washed, and resuspended in 50 μL of DNA labeling solution containing a reaction buffer, terminal deoxynucleotidyl transferase enzyme, FITC-labeled deoxyuridine triphosphate nucleotides, and distilled water. After a 60-minute incubation at 37° C., cells were again washed, pelleted, and resuspended in 500 μl of propidium iodine/RNase staining buffer. Samples were then analyzed by flow cytometry (fluorescence-activated cell sorting) using a FACSCalibur (Becton Dickinson, Franklin Lakes, NJ). Data was further analyzed using the software FLOWJOW ver. 6.1.1 (Tree Star Inc.).

[4] = system: MIA-MSLN cells; test: Anchorage independent growth assay in soft agar; assay type: cell-based, human; conditions: MIA-MSLN-miR-198 vs MIA-MSLN, 15 days, ImageJ
Method: A soft agar assay for colony formation was performed by coating 35 mm dishes with a combination of 0.5% base agar and 0.7% top agar. Base agar preparation: 1% LMP Agarose (DNA grade) (Baylor College of Medicine) was melted in 1× incomplete DMEM, microwaved, and cooled to 40° C. in a water bath. Equal volumes of 20% FBS DMEM pre-warmed to 40° C. in water bath were mixed to give 0.5% Agar+10% DMEM, of which 1.5 ml/35 m Petri dish was added and allowed to set at room temperature.
Top agar preparation: 0.7% LMP Agarose (DNA grade) in 1×DMEM was prepared in the same manner as above. Cells were trypsinized and diluted to 0.1×10^6 cells/ml, in the 20% FBS DMEM; 5,000 cells/dish were plated in duplicate. The plates were then incubated at 37° C. in a humidified incubator for 15 days. Following incubation, the plates were stained with 0.5 ml of 1% MTT for 2 h, and colonies were photographed using a dissecting microscope. Images were analyzed using IMAGEJ software.

[5] = system: COS-7 cells; test: Co-transfection with MSLN ORF construct, western blot; assay type: cell-based; conditions: COS-7 cells co-transfected with WT MSLN plasmid and miR-198 precursors
Excerpt: A MSLN ORF clone was purchased from Origene (RC202532). Site-directed mutagenesis was used to generate constructs containing silent mutations in each of the three predicted miR-198 binding sites within the CDS of the MSLN gene (FIG. 13). MiR-198 precursors or a scrambled miRNA control were co-transfected into COS-7 cells along with either the WT MSLN ORF construct or each of the single, double, or triple mutants. Cell lysates were collected for western blot analysis. RNA and miRNA were collected for real-time RT-PCR analysis.

[6] = system: MIA-MSLN cells; test: Orthotopic pancreatic cancer mouse model; assay type: in vivo, nude mice
Method: (§4) All animal procedures were conducted under the guidelines approved by the Institutional Animal Care and Use Committee (IACUC). Cells (3×10^6) were inoculated into the right flank (s.c. model) or into the pancreas (orthotopic model) of 5 to 6-week-old male nude mice (NCI-Charles River) as previously described (Li et al., 2007). Tumor size was measured using a digital caliper and tumor volume was determined with the following formula: tumor volume (mm^3)=[length (mm)]×[width (mm)]2×0.52. For the orthotopic model, after 4 weeks all surviving mice were euthanized and evaluated macroscopically for the presence of orthotopic tumor and metastases in the abdominal cavity. Tumor spread was further visualized using a fluorescent filter to view GFP expression. The tumor nodules were explanted, counted, and weighed. Tumor tissues were stored in RNAse Later solution (Ambion) in −80° for subsequent RNA/miRNA isolation and analysis.

[7] = system: MIA-MSLN cells; test: Subcutaneous pancreatic cancer mouse model; assay type: in vivo, nude mice
Method: as §4

[8] = system: AsPC1 cells; test: Monolayer wound healing assay; assay type: cell-based, human; conditions: miR-198 overexpressed, all serum conditions tested
Excerpt: (§5) For wound healing assay, wounds were created in confluent monolayer of cells with a sterile pipette tip in either 0%, 0.2%, 2%, or 5% FBS media, and wound healing was observed within the scrape line at different time points; representative fields for each cell line were photographed (Li et al., 2008, Bharadwaj).

[9] = system: MIA-MSLN cells; test: Monolayer wound healing assay; assay type: cell-based, human; conditions: miR-198 overexpressed, all serum conditions tested
Excerpt: as §5

[10] = system: AsPC1 cells; test: Apoptosis assay (TUNEL) after TNF-α; assay type: cell-based, human; conditions: AsPC1-miR-198 cells, TUNEL after TNF-α treatment
Method: as §3

[11] = system: MIA-V cells; test: Apoptosis assay (TUNEL) after TNF-α; assay type: cell-based, human; conditions: TUNEL after TNF-α treatment
Method: as §3

## miR-198: microRNA-198, SEQ ID NO: 1 gguccagaggggagauagg; used as transfected precursors (Ambion) or Lenti-miR stable overexpression (GGUCCAGAGGGGAGAUAGG; listed as RNA, chemistry not given here; listed as Homo sapiens)
[1]
  invasion decreased: ~50%
[2]
  invasion reduced: 24%
[3]; MIA-MSLN-miR-198 cells, TUNEL after TNF-α treatment
  increase in number of cells undergoing apoptosis over controls: > 60%
[3]; overexpression of miR-198 in MIA-MSLN cells, western blot
  caspase 3 cleavage: results in caspase 3 cleavage
[4]
  reduction in mean threshold intensity of soft agar colonies: ~20 fold
[5]
  expression of WT MSLN protein: abolished expression of the WT MSLN protein
[6]; orthotopic MIA-MSLN-miR-198 cells, after 4 weeks
  average primary tumor weight: 0.06 g
[6]; orthotopic MIA-MSLN-miR-198 injected mice, 8 mice
  metastases: Four of the eight mice had no metastases
[6]; orthotopic, mice injected with high miR-198 cells
  jaundice, weight loss, and abdominal ascitic fluid: none of the mice injected with high miR-198 cells had these symptoms
[7]; s.c. MIA-MSLN-miR-198 cells
  mice that developed tumors: 3 of 9
[7]; s.c. MIA-MSLN-miR-198 cells, day 45 post injection, the three mice with tumors
  average tumor volume: 37 mm^3 and 36 mm^3
[7]; s.c. miR-198 overexpressing cells, tumor-free for 45 days
  mice with no signs of tumor development: 6/9
[7]; s.c., the three mice that presented small tumors
  first measurable tumors: 35 day post injection
[8]
  wound closure rate: reduced wound closure rate
[9]
  wound closure rate: reduced wound closure rate
[10]
  increase in number of cells undergoing apoptosis over controls: > 90%
[11]
  apoptotic cells: ~75%
